Structures are written as SMILES. A value given as a limit tells only on which side of the number the result lay.

The experiment deals with T1, PERK (Homo sapiens, UniProt Q9NZJ5).
T1 sequence (Q9NZJ5 30-1116): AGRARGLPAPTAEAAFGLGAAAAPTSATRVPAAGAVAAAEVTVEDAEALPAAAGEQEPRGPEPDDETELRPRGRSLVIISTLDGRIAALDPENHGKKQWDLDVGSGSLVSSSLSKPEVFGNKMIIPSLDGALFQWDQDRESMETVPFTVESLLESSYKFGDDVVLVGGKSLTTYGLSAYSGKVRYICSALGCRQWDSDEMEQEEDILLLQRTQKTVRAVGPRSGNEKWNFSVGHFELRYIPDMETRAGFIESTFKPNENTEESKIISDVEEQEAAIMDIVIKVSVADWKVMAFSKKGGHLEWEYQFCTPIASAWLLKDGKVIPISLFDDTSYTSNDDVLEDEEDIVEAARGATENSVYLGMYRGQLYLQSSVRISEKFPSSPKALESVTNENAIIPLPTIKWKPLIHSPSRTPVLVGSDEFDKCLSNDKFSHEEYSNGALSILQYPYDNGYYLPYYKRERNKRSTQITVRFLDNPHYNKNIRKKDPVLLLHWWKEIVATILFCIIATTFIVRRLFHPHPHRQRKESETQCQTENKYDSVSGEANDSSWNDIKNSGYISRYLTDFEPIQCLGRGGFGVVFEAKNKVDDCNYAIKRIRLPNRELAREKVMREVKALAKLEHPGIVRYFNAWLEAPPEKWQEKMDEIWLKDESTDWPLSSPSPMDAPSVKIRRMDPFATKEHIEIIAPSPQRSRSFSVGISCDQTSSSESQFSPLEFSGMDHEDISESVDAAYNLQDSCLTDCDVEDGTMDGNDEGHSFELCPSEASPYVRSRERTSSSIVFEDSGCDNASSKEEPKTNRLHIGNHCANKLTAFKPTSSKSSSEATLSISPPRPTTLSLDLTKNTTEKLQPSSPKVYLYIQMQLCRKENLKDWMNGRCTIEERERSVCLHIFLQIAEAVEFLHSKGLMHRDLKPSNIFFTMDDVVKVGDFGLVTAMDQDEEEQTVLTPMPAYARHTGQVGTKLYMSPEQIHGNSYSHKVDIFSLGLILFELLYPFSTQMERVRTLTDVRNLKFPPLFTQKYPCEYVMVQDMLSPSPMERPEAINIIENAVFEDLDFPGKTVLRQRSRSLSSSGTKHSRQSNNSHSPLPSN
As to the kind of experiment: PERK enzyme assay (HTRF). Conditions: PERK Enzyme (500 μM ATP) IC50; at least one experimental run; read-out: PERK Activity. In kind it is biochemical. As to the method:
Compounds of the invention were assayed for PERK enzyme inhibitory activity with modifications to previously reported conditions (Axten et al. J. Med. Chem., 2012, 55, 7193-7207). Briefly, various concentrations of compounds (maximum 1% DMSO) were dispensed into 384-well plates containing GST-PERK enzyme. After 30-60 minutes of compound pre-incubation, ATP and biotin-eIF2α were added and after 60 minutes the reaction was quenched. After 2 hrs, a fluorescence plate reader was used to measure inhibition and IC50s were calculated.
Enzyme Assay Protocol for PKR-Like Endoplasmic Reticulum Kinase (PERK)—HTRF —% Inhibition
Assay Buffer contains HEPES (pH7.5) 10 mM, CHAPS 2 mM, MgCl2 5 mM and DTT 1 mM in water
Detection Buffer contains HEPES (pH7.5) 10 mM and CHAPS 2 mM in water Assay Plate Preparation:
1. Enzyme Preparation: • 4× Enzyme solution was prepared immediately prior to adding to compound plates. • 3 nM of GST-PERK in Assay buffer. Final [PERK] in 10 μl assay volume=0.75 nM
2. Substrate Preparation: • 4× Substrate solution was prepared immediately prior to adding to compound plates. • 4× Substrate solution in assay buffer 2000 μM ATP and 160 nM Biotin-eIF2α • Final [ATP] in 10 μl assay volume=500 μM • Final [biotin-eIF2a] in 10 μl assay volume=40 nM.
3. Quench/Detection Solution: • 16 nM eIF2 Phospho-Antibody • 16 nM Eu anti-Rabbit IgG • 160 nM Streptavidin-APC • 60 mM EDTA • Final concentration in 10 μL assay volume: 4 nM eIF2 Phospho-Antibody, 4 nM Eu anti-Rabbit IgG 40 nM Streptavidin-APC
The activity of compounds in the PERK enzyme assay was determined at PERK Enzyme (500 μM ATP) IC50 (nM).
(In general: In TR-FRET formats the signal depends on donor and acceptor labels being close together.)
For the molecule `CCN1C(=O)N(c2ccc(-c3cn(C)c4ncnc(N)c34)c(F)c2)CC1c1cc(F)cc(Cl)c1` (centres unmarked) [Example 27, 1-(4-(4-amino-7-methyl-7H-pyrrolo[2,3-d]pyrimidin-5-yl)-3-fluorophenyl)-4-(3-chloro-5-fluorophenyl)-3-ethylimidazolidin-2-one], the IC50 fell in the range of 100 to 1000 nM. The result for `CN1C(=O)N(c2ccc(-c3cn(C4CC4)c4ncnc(N)c34)c(F)c2)CC1c1cc(F)ccc1F` (single isomer, unassigned) [Example 145, 1-(4-(4-amino-7-cyclopropyl-7H-pyrrolo[2,3-d]pyrimidin-5-yl)-3-fluorophenyl)-4-(2,5-difluorophenyl)-3-methylimidazolidin-2-one] reads less than 100 nM; that for `CN1C(=O)N(c2ccc(-c3cn(C)c4ncnc(N)c34)c(F)c2)CC1c1ccc2c(c1)CCO2` (single isomer, unassigned) [Example 169, 1-(4-(4-amino-7-methyl-7H-pyrrolo[2,3-d]pyrimidin-5-yl)-3-fluorophenyl)-4-(2,3-dihydrobenzofuran-5-yl)-3-methylimidazolidin-2-one], less than 100 nM; that for `CCN1C(=O)N(c2ccc(-c3cn(C)c4ncnc(N)c34)c(F)c2)CC1c1cc(C2CC2)ccc1F` (centres unmarked) [Example 48, 1-(4-(4-amino-7-methyl-7H-pyrrolo[2,3-d]pyrimidin-5-yl)-3-fluorophenyl)-4-(5-cyclopropyl-2-fluorophenyl)-3-ethylimidazolidin-2-one], 100 to 1000 nM. The figure for `CCN1C(=O)N(c2ccc(-c3cn(C)c4nc(C)nc(N)c34)c(F)c2)CC1c1cc(F)ccc1F` (centres unmarked) [Example 19, 1-(4-(4-amino-2,7-dimethyl-7H-pyrrolo[2,3-d]pyrimidin-5-yl)-3-fluorophenyl)-4-(2,5-difluorophenyl)-3-ethylimidazolidin-2-one] is more than 1000 nM. The figure for `CN1C(=O)N(c2ccc(-c3cn(C4CC4)c4ncnc(N)c34)c(F)c2)CC1c1cc(F)cc(F)c1F` (single isomer, unassigned) [Example 142, 1-(4-(4-amino-7-cyclopropyl-7H-pyrrolo[2,3-d]pyrimidin-5-yl)-3-fluorophenyl)-3-methyl-4-(2,3,5-trifluorophenyl)imidazolidin-2-one] is less than 100 nM; for `CN1C(=O)N(c2ccc(-c3cn(C)c4ncnc(N)c34)c(F)c2)CC1c1cc(C2CC2)ccc1F` (centres unmarked) [Example 49, 1-(4-(4-amino-7-methyl-7H-pyrrolo[2,3-d]pyrimidin-5-yl)-3-fluorophenyl)-4-(5-cyclopropyl-2-fluorophenyl)-3-methylimidazolidin-2-one] it is 100 to 1000 nM. For the molecule `CC(C)n1cc(-c2ccc(N3CC(c4cc(F)ccc4F)N(C)C3=O)cc2F)c2c(N)ncnc21` (centres unmarked) [Example 43, 1-(4-(4-amino-7-isopropyl-7H-pyrrolo[2,3-d]pyrimidin-5-yl)-3-fluorophenyl)-4-(2,5-difluorophenyl)-3-methylimidazolidin-2-one], the IC50 is less than 100 nM. The figure for `CN1C(=O)N(c2ccc(-c3cn(C)c4ncnc(N)c34)c(F)c2)CC1c1cc(F)ccc1F` (single isomer, unassigned) [Example 151, 1-(4-(4-amino-7-methyl-7H-pyrrolo[2,3-d]pyrimidin-5-yl)-3-fluorophenyl)-4-(2,5-difluorophenyl)-3-methylimidazolidin-2-one] is 100 to 1000 nM. The result for `CN1C(=O)N(c2ccc(-c3cn(C)c4ncnc(N)c34)c(F)c2)CC1c1cc(F)c(F)cc1F` (single isomer, unassigned) [Example 159, 1-(4-(4-amino-7-methyl-7H-pyrrolo[2,3-d]pyrimidin-5-yl)-3-fluorophenyl)-3-methyl-4-(2,4,5-trifluorophenyl)imidazolidin-2-one] reads 100 to 1000 nM. In the case of `COc1cccc(C2CN(c3ccc(-c4cn(C)c5ncnc(N)c45)c(F)c3)C(=O)N2C)c1` (single isomer, unassigned) [Example 103, 1-(4-(4-amino-7-methyl-7H-pyrrolo[2,3-d]pyrimidin-5-yl)-3-fluorophenyl)-4-(3-methoxyphenyl)-3-methylimidazolidin-2-one], the IC50 was less than 100 nM. The figure for `CN1C(=O)N(c2ccc(-c3cn(C)c4ncnc(N)c34)c(F)c2)CC1C1CCCCC1` (single isomer, unassigned) [Example 62, 1-(4-(4-amino-7-methyl-7H-pyrrolo[2,3-d]pyrimidin-5-yl)-3-fluorophenyl)-4-cyclohexyl-3-methylimidazolidin-2-one] is less than 100 nM; for `Cn1cc(-c2ccc(N3CC(C4CCCC4)CC3=O)cc2F)c2c(N)ncnc21` (centres unmarked) [Example 28, 1-(4-(4-amino-7-methyl-7H-pyrrolo[2,3-d]pyrimidin-5-yl)-3-fluorophenyl)-4-cyclopentylpyrrolidin-2-one] it is 100 to 1000 nM; for `CCN1C(=O)N(c2ccc(-c3cn(C)c4ncnc(N)c34)c(F)c2)CC1c1cccc(C)n1` (centres unmarked) [Example 50, 1-(4-(4-amino-7-methyl-7H-pyrrolo[2,3-d]pyrimidin-5-yl)-3-fluorophenyl)-3-ethyl-4-(6-methylpyridin-2-yl)imidazolidin-2-one] it is 100 to 1000 nM. The figure for `CN1C(=O)N(c2ccc(-c3cn(C4CC4)c4ncnc(N)c34)c(F)c2)CC1c1cc(F)ccc1F` (centres unmarked) [Example 144, 1-(4-(4-amino-7-cyclopropyl-7H-pyrrolo[2,3-d]pyrimidin-5-yl)-3-fluorophenyl)-4-(2,5-difluorophenyl)-3-methylimidazolidin-2-one] is less than 100 nM; for `CCn1cc(-c2ccc(N3CC(c4ccc(F)cc4F)N(C)C3=O)cc2F)c2c(N)nc(C)nc21` (centres unmarked) [Example 109, 1-(4-(4-amino-7-ethyl-2-methyl-7H-pyrrolo[2,3-d]pyrimidin-5-yl)-3-fluorophenyl)-4-(2,4-difluorophenyl)-3-methylimidazolidin-2-one] it is less than 100 nM. The figure for `Cc1cc(C)cc(C2CC(=O)N(c3ccc(-c4cn(C)c5ncnc(N)c45)c(F)c3)C2)c1` (centres unmarked) [Example 30, 1-(4-(4-amino-7-methyl-7H-pyrrolo[2,3-d]pyrimidin-5-yl)-3-fluorophenyl)-4-(3,5-dimethylphenyl)pyrrolidin-2-one] is less than 100 nM; for `Cc1nc(N)c2c(-c3ccc(N4CC(c5ccc(F)cc5F)N(C)C4=O)cc3F)c(C)n(C)c2n1` (single isomer, unassigned) [Example 10, 1-(4-(4-amino-2,6,7-trimethyl-7H-pyrrolo[2,3-d]pyrimidin-5-yl)-3-fluorophenyl)-4-(2,4-difluorophenyl)-3-methylimidazolidin-2-one] it is more than 1000 nM.

On to `CN1C(=O)N(c2ccc(-c3cn(C4CC4)c4ncnc(N)c34)c(F)c2)CC1c1ccc(F)cc1` (single isomer, unassigned) [Example 164, 1-(4-(4-amino-7-cyclopropyl-7H-pyrrolo[2,3-d]pyrimidin-5-yl)-3-fluorophenyl)-4-(4-fluorophenyl)-3-methylimidazolidin-2-one], for which the IC50 is 100 to 1000 nM. The result for `CCN1C(=O)N(c2ccc(-c3cn(C4CC4)c4ncnc(N)c34)c(F)c2)CC1c1cc(F)cc(F)c1` (single isomer, unassigned) [Example 173, 1-(4-(4-amino-7-cyclopropyl-7H-pyrrolo[2,3-d]pyrimidin-5-yl)-3-fluorophenyl)-4-(3,5-difluorophenyl)-3-ethylimidazolidin-2-one] reads less than 100 nM.

The values above are taken from patent US20180237441A1, “Chemical Compounds” (GlaxoSmithKline Intellectual Property (No.2) Limited, priority 2015, published 2018).
